Data reported in the supplement of paper PMC10307832.

How the values were obtained:
Experiment in all cases: relative viability (nuclei count vs DMSO), 5 days (fraction); higher = more cells survive
Dabrafenib + Bortezomib = compound: CC(C)(C)c1nc(-c2cccc(NS(=O)(=O)c3c(F)cccc3F)c2F)c(-c2ccnc(N)n2)s1 [Dabrafenib] + CC(C)C[C@H](NC(=O)[C@H](Cc1ccccc1)NC(=O)c1cnccn1)B(O)O [Bortezomib] (partner 0.002 µM)
How it was run: (§1)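 A single step with final 0.05% Triton X-100, 1% formaldehyde and 1 ug/ml Hoechst fixed the cells and stained nuclei 5 days after treatment. Lung cancer cell lines in 1536-well plates had been treated by pin tool the day after seeding with one drug alone or a fixed anchor-drug dose plus five library-drug doses (not always all listed) in √10 steps, and nuclei were counted on 4× images. Relative viability is the ratio of nuclei in treated wells to nuclei in vehicle wells, taken as the median of duplicate plates.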

VX-702 + Dasatinib = compound: NC(=O)c1ccc(N(C(N)=O)c2c(F)cccc2F)nc1-c1ccc(F)cc1F [VX-702] + Cc1nc(Nc2ncc(C(=O)Nc3c(C)cccc3Cl)s2)cc(N2CCN(CCO)CC2)n1 [Dasatinib] (partner 0.075 µM)
How it was run: as §1

Dabrafenib + Linsitinib = compound: CC(C)(C)c1nc(-c2cccc(NS(=O)(=O)c3c(F)cccc3F)c2F)c(-c2ccnc(N)n2)s1 [Dabrafenib] + C[C@]1(O)C[C@@H](c2nc(-c3ccc4ccc(-c5ccccc5)nc4c3)c3c(N)nccn32)C1 [Linsitinib] (partner 1 µM)
How it was run: as §1

VX-702 + Palbociclib = compound: NC(=O)c1ccc(N(C(N)=O)c2c(F)cccc2F)nc1-c1ccc(F)cc1F [VX-702] + CC(=O)c1c(C)c2cnc(Nc3ccc(N4CCNCC4)cn3)nc2n(C2CCCC2)c1=O [Palbociclib] (partner 0.5 µM)
How it was run: as §1

## NCI-H838
Dabrafenib + Bortezomib; first compound 0.003 µM
  relative viability: 0.74
Dabrafenib + Bortezomib; first compound 0.009487 µM
  relative viability: 0.973
Dabrafenib + Bortezomib; first compound 0.03 µM
  relative viability: 0.417
Dabrafenib + Bortezomib; first compound 0.09487 µM
  relative viability: 0.715
Dabrafenib + Bortezomib; first compound 0.3 µM
  relative viability: 1.09
VX-702 + Dasatinib; first compound 0.02 µM
  relative viability: 0.348
VX-702 + Dasatinib; first compound 0.2 µM
  relative viability: 0.285
VX-702 + Dasatinib; first compound 0.6325 µM
  relative viability: 0.304
VX-702 + Dasatinib; first compound 2 µM
  relative viability: 0.339
Dabrafenib + Linsitinib; first compound 0.003 µM
  relative viability: 0.994
Dabrafenib + Linsitinib; first compound 0.009487 µM
  relative viability: 1.04
Dabrafenib + Linsitinib; first compound 0.03 µM
  relative viability: 0.95
Dabrafenib + Linsitinib; first compound 0.09487 µM
  relative viability: 0.97
Dabrafenib + Linsitinib; first compound 0.3 µM
  relative viability: 1.08
VX-702 + Palbociclib; first compound 0.02 µM
  relative viability: 0.225
VX-702 + Palbociclib; first compound 0.2 µM
  relative viability: 0.214
VX-702 + Palbociclib; first compound 0.6325 µM
  relative viability: 0.198
VX-702 + Palbociclib; first compound 2 µM
  relative viability: 0.227

## NCI-H1355
Dabrafenib + Bortezomib; first compound 0.009487 µM
  relative viability: 1.22
Dabrafenib + Bortezomib; first compound 0.03 µM
  relative viability: 1.12
Dabrafenib + Bortezomib; first compound 0.3 µM
  relative viability: 1.29
VX-702 + Dasatinib; first compound 0.02 µM
  relative viability: 0.883
VX-702 + Dasatinib; first compound 0.2 µM
  relative viability: 0.679
VX-702 + Dasatinib; first compound 0.6325 µM
  relative viability: 0.683
VX-702 + Dasatinib; first compound 2 µM
  relative viability: 0.818
Dabrafenib + Linsitinib; first compound 0.009487 µM
  relative viability: 0.858
Dabrafenib + Linsitinib; first compound 0.03 µM
  relative viability: 0.682
Dabrafenib + Linsitinib; first compound 0.3 µM
  relative viability: 0.823
VX-702 + Palbociclib; first compound 0.02 µM
  relative viability: 0.411
VX-702 + Palbociclib; first compound 0.2 µM
  relative viability: 0.424
VX-702 + Palbociclib; first compound 0.6325 µM
  relative viability: 0.441
VX-702 + Palbociclib; first compound 2 µM
  relative viability: 0.404

## NCI-H1437
Dabrafenib + Bortezomib; first compound 0.003 µM
  relative viability: 0.299
Dabrafenib + Bortezomib; first compound 0.009487 µM
  relative viability: 0.529
Dabrafenib + Bortezomib; first compound 0.03 µM
  relative viability: 0.518
Dabrafenib + Bortezomib; first compound 0.09487 µM
  relative viability: 0.534
Dabrafenib + Bortezomib; first compound 0.3 µM
  relative viability: 0.516
VX-702 + Dasatinib; first compound 0.02 µM
  relative viability: 0.407
VX-702 + Dasatinib; first compound 0.2 µM
  relative viability: 0.34
VX-702 + Dasatinib; first compound 0.6325 µM
  relative viability: 0.439
VX-702 + Dasatinib; first compound 2 µM
  relative viability: 0.467
Dabrafenib + Linsitinib; first compound 0.003 µM
  relative viability: 1.03
Dabrafenib + Linsitinib; first compound 0.009487 µM
  relative viability: 0.989
Dabrafenib + Linsitinib; first compound 0.03 µM
  relative viability: 1.07
Dabrafenib + Linsitinib; first compound 0.09487 µM
  relative viability: 0.974
Dabrafenib + Linsitinib; first compound 0.3 µM
  relative viability: 1.07
VX-702 + Palbociclib; first compound 0.02 µM
  relative viability: 0.308
VX-702 + Palbociclib; first compound 0.2 µM
  relative viability: 0.318
VX-702 + Palbociclib; first compound 0.6325 µM
  relative viability: 0.319
VX-702 + Palbociclib; first compound 2 µM
  relative viability: 0.318

## NCI-H1651
Dabrafenib + Bortezomib; first compound 0.003 µM
  relative viability: 0.857
Dabrafenib + Bortezomib; first compound 0.009487 µM
  relative viability: 0.887
Dabrafenib + Bortezomib; first compound 0.03 µM
  relative viability: 0.972
Dabrafenib + Bortezomib; first compound 0.09487 µM
  relative viability: 0.946
Dabrafenib + Bortezomib; first compound 0.3 µM
  relative viability: 0.862
VX-702 + Dasatinib; first compound 0.02 µM
  relative viability: 0.395
VX-702 + Dasatinib; first compound 0.2 µM
  relative viability: 0.456
VX-702 + Dasatinib; first compound 0.6325 µM
  relative viability: 0.359
VX-702 + Dasatinib; first compound 2 µM
  relative viability: 0.544
Dabrafenib + Linsitinib; first compound 0.003 µM
  relative viability: 0.962
Dabrafenib + Linsitinib; first compound 0.009487 µM
  relative viability: 1.01
Dabrafenib + Linsitinib; first compound 0.03 µM
  relative viability: 0.833
Dabrafenib + Linsitinib; first compound 0.09487 µM
  relative viability: 0.971
Dabrafenib + Linsitinib; first compound 0.3 µM
  relative viability: 0.989
VX-702 + Palbociclib; first compound 0.02 µM
  relative viability: 0.503
VX-702 + Palbociclib; first compound 0.2 µM
  relative viability: 0.494
VX-702 + Palbociclib; first compound 0.6325 µM
  relative viability: 0.502
VX-702 + Palbociclib; first compound 2 µM
  relative viability: 0.56
